{"source": "paper PMC8165439", "about": "“Chymase Dependent Pathway of Angiotensin II Generation and Rapeseed Derived Peptides for Antihypertensive Treatment of Spontaneously Hypertensive Rats” (Frontiers in Pharmacology, 2021)", "type_in_all_cases": "in vivo, rat", "key": {"[1]": {"test_system": "anesthetized spontaneously hypertensive rats (SHR)", "experiment": "Acute infusion of chymostatin to anesthetized rats, mean arterial blood pressure", "conditions": "anesthetized adult SHR, chymostatin 2 mg/kg iv infusion 1 h, n = 7; decrease observed 30 min after cessation of infusion", "description": "In acute experiments rats were anesthetized with intraperitoneal (ip) sodium thiopental (100 mg/kg; Sandoz GmbH, Kundl, Austria), which provided stable anesthesia for about 4 h. All surgical preparations were already described in detail ([Gawrys et al., 2014]; [Badzynska et al., 2020]). Throughout the experiment the temperature of the animal was kept constant (37°C). A cannula was placed in the trachea to ensure a free airway. The jugular vein was cannulated for infusion of fluids and drugs; during surgical preparations 3% bovine albumin in Ringer solution was infused at 10 ml/kg/h. For mean arterial blood pressure (MBP) measurement, a Teflon catheter was placed in the femoral artery (Stoelting Blood Pressure Meter, Wood Dale, IL, United States). After surgical preparations and stabilization of all parameters, a short control period (30 min) was made to obtain baseline for measured parameters. Chymostatin or its solvent (final concentration of DMSO was 0.05%) were administered for 1 h. After cessation of chymostatin infusion, a recovery period (30 min) was made. In the end, the animals were sacrificed by sodium thiopental overdose (iv); and vital life signs (blood pressure, breathing) were monitored until death."}, "[2]": {"test_system": "spontaneously hypertensive rats (SHR)", "experiment": "Chronic iv treatment, systolic blood pressure by telemetry", "source_text": "Implantation of the telemetry transmitters for BP measurement: Seven days before the start of the chronic experiment all rats were implanted with telemetry probes for blood pressure monitoring (Data Science International, St. Paul, MN, United States). The transmitters (TA11PA-C10 dedicated for young animals or TA11PA-C40 for adult rats, Data Science International, St. Paul, MN, United States), were implanted under aseptic conditions, under sodium pentobarbital anesthesia (Sodium Pentobarbital, dose: 50 mg/kg ip, Biowet, Pulawy, Poland). The transmitter’s cannula was implanted into the aorta and transmitter’s body was placed inside the peritoneal cavity and fixed to the abdominal muscle wall. Metacam (0.4 mg/kg BW, Boehringer, Ingelheim, Germany) and Baytril (10 mg/kg BW, Bayer, Leverkusen, Germany) were used as post-operative analgesia and to prevent infection, respectively.\nImplantation of cannulas for intravenous administration of selected substances: Four days before the start of the chronic experiment, the femoral vein was cannulated for chronic administration of the substances (Micro-Renathane MRE033, BIOSEB-In Vivo Research Instruments, United States/Canada), and the femoral artery was cannulated for blood sampling (Micro-Renathane Tubing MRE-025 and MRE033, BIOSEB-In Vivo Research Instruments, United States/Canada, respectively in young and adult rats). Both cannulas were filled with 4% Citra-Lock solution (Dirinco B.V, Ketelmeer 1, 5347 JX Oss, Netherlands) to prevent blood clotting and inflammation. After the surgery the post-operative treatment was applied as that for telemetric probe implantation.\nSystolic and diastolic blood pressure (SBP and DBP, respectively) and heart rate (HR) were measured in conscious unrestrained rats by telemetry technique, once a week for 24 h. […] The diuresis, weight of feces, food and water intake were measured; urine and blood samples were collected on day 0, 7th and 14th, and were centrifuged at 1200 g (blood for 15 min and urine for 5 min), then the samples were stored at –80°C until analysis. […]"}, "[3]": {"test_system": "spontaneously hypertensive rats (SHR)", "experiment": "Chronic iv treatment, urinary albumin excretion (UAE)", "conditions": "mean ± SEM, n = 5", "description": "(§1) Systolic and diastolic blood pressure (SBP and DBP, respectively) and heart rate (HR) were measured in conscious unrestrained rats by telemetry technique, once a week for 24 h. 24 hour observations in metabolic cages (Tecniplast S. p.A. Buguggiate, Italy) were performed weekly. The diuresis, weight of feces, food and water intake were measured; urine and blood samples were collected on day 0, 7th and 14th, and were centrifuged at 1200 g (blood for 15 min and urine for 5 min), then the samples were stored at –80°C until analysis.\n(§2) On day 0 all animals received saline (0.9% NaCl) and then, for 14 consecutive days, the substance tested. Chymostatin (CH, 2 mg/kg/day) was dissolved in DMSO and then diluted with PBS (final concentration of DMSO was 0.15%). Peptides RIY (7.5 mg/kg/day) and VWIS (12.5 mg/kg/day) were dissolved in saline (0.9% NaCl, S). The substances were administered through the femoral vein during 10 min in the volume of 0.5 ml to young SHR (infusion rate: 3 ml/h) and 1 ml to adult rats (infusion rate: 6 ml/h). Control rats received solvents (either DMSO or saline) in the same volume.\n(§3) Urine volume was determined by gravimetric method. Sodium and potassium concentration in urine and plasma were measured by flame photometry (PFP7/C, Jenway Ltd, Stone, United Kingdom). Urine and plasma osmolality were measured by freezing point depression (Osmomat® 030 M, Gonotec, Berlin, Germany). These parameters were used to determine the excretion rates of total solutes (UosmV), sodium (UNaV) and potassium (UKV). Commercially available ELISA kits were used to measure nitric oxide metabolites (NOx, SunRed, Shanghai) and albumin (Albumin, ICL, Portland) concentration in urine. Excretion rate of NOx (UNOxV) and albumin (UAE) were calculated."}, "[4]": {"test_system": "spontaneously hypertensive rats (SHR)", "experiment": "Plasma and urine parameters during chronic treatment", "conditions": "mean ± SEM", "description": "as §1, §2, §3"}, "[5]": {"conditions": "adult SHR (SHR-16), day 0 (baseline)"}, "[6]": {"conditions": "adult SHR (SHR-16), day 7 of daily iv treatment"}, "[7]": {"conditions": "adult SHR (SHR-16), day 14 of daily iv treatment"}, "[8]": {"conditions": "young SHR (SHR-6), day 0 (baseline)"}, "[9]": {"conditions": "young SHR (SHR-6), day 7 of daily iv treatment"}, "[10]": {"conditions": "young SHR (SHR-6), day 14 of daily iv treatment"}}, "note": "Entries after “also recorded” stand apart in the source; their conditions may differ.", "data": [{"smiles": "CC(C)C[C@H](NC(=O)[C@@H](NC(=O)N[C@@H](Cc1ccccc1)C(=O)O)[C@@H]1CCN=C(N)N1)C(=O)N[C@H](C=O)Cc1ccccc1", "note": "[CH, chymostatin]", "values": [{"measurement": "Mean blood pressure (MBP) after single intravenous infusion", "setting": "[1]", "result": "decreased significantly"}, {"measurement": "effect on systolic blood pressure (SBP) in adult SHR", "setting": "[2]; adult SHR (16 weeks old), daily iv for 14 days, CH 2, RIY 7.5, VWIS 12.5 mg/kg/day", "result": "no sustained decrease in arterial blood pressure; also recorded: significant increase in SBP"}, {"measurement": "period of transient BP reduction post-infusion", "setting": "[2]; adult SHR, chronic intravenous infusion of chymostatin 2 mg/kg/day", "result": "≤ 7", "unit": "h"}, {"measurement": "effect on blood pressure (SBP) in young animals", "setting": "[2]; young SHR (6 weeks old), daily iv for 14 days, CH 2, RIY 7.5, VWIS 12.5 mg/kg/day", "result": "Neither of the inhibitors applied (chymostatin and the both rapeseed-derived peptides) affected blood pressure"}, {"measurement": "Urinary albumin excretion (UAE)", "setting": "[3]; adult SHR, day 0 (baseline, saline)", "result": "0.59 ± 0.33", "unit": "mg/24h"}, {"measurement": "Urinary albumin excretion (UAE)", "setting": "[3]; adult SHR, day 7 of daily iv CH 2, RIY 7.5, VWIS 12.5 mg/kg/day", "result": "0.41 ± 0.04", "unit": "mg/24h"}, {"measurement": "Urinary albumin excretion (UAE)", "setting": "[3]; adult SHR, day 14 of daily iv CH 2, RIY 7.5, VWIS 12.5 mg/kg/day", "result": "0.84 ± 0.32", "unit": "mg/24h"}, {"measurement": "Urinary albumin excretion (UAE)", "setting": "[3]; young SHR, day 0 (baseline, saline)", "result": "0.03 ± 0.01", "unit": "mg/24h"}, {"measurement": "Urinary albumin excretion (UAE)", "setting": "[3]; young SHR, day 7 of daily iv CH 2, RIY 7.5, VWIS 12.5 mg/kg/day", "result": "0.07 ± 0.01", "unit": "mg/24h"}, {"measurement": "Urinary albumin excretion (UAE)", "setting": "[3]; young SHR, day 14 of daily iv CH 2, RIY 7.5, VWIS 12.5 mg/kg/day", "result": "0.13 ± 0.03", "unit": "mg/24h"}, {"measurement": "Plasma osmolality", "setting": "[4]; adult SHR (SHR-16), day 0 (baseline), CH n=5-8, RIY n=5-6, VWIS n=5-6", "result": "307±2", "unit": "mOsm/l"}, {"measurement": "Plasma K+ concentration", "setting": "[4]; [5]", "result": "4.39 ± 0.27", "unit": "mmol/L"}, {"measurement": "Plasma Na+ concentration", "setting": "[4]; [5]", "result": "134.6 ± 2.6", "unit": "mmol/L"}, {"measurement": "Potassium excretion", "setting": "[4]; [5]", "result": "1.28 ± 0.19", "unit": "µmol/min"}, {"measurement": "Sodium excretion", "setting": "[4]; [5]", "result": "1.01 ± 0.13", "unit": "µmol/min"}, {"measurement": "Total solute excretion", "setting": "[4]; [5]", "result": "7.05±0.90", "unit": "µOsm/min"}, {"measurement": "Plasma osmolality", "setting": "[4]; adult SHR (SHR-16), day 7 of daily iv CH 2, RIY 7.5, VWIS 12.5 mg/kg/day", "result": "299±2", "unit": "mOsm/l"}, {"measurement": "Plasma K+ concentration", "setting": "[4]; [6]", "result": "4.21 ± 0.10", "unit": "mmol/L"}, {"measurement": "Plasma Na+ concentration", "setting": "[4]; [6]", "result": "130.5 ± 2.3", "unit": "mmol/L"}, {"measurement": "Potassium excretion", "setting": "[4]; [6]", "result": "1.24 ± 0.25", "unit": "µmol/min"}, {"measurement": "Sodium excretion", "setting": "[4]; [6]", "result": "0.77 ± 0.23", "unit": "µmol/min"}, {"measurement": "Total solute excretion", "setting": "[4]; [6]", "result": "7.11±1.34", "unit": "µOsm/min"}, {"measurement": "Plasma osmolality", "setting": "[4]; adult SHR (SHR-16), day 14 of daily iv CH 2, RIY 7.5, VWIS 12.5 mg/kg/day", "result": "294±5", "unit": "mOsm/l"}, {"measurement": "Plasma K+ concentration", "setting": "[4]; [7]", "result": "3.95 ± 0.20", "unit": "mmol/L"}, {"measurement": "Plasma Na+ concentration", "setting": "[4]; [7]", "result": "126.1 ± 1.0", "unit": "mmol/L"}, {"measurement": "Potassium excretion", "setting": "[4]; [7]", "result": "1.71 ± 0.15", "unit": "µmol/min"}, {"measurement": "Sodium excretion", "setting": "[4]; [7]", "result": "1.11 ± 0.33", "unit": "µmol/min"}, {"measurement": "Total solute excretion", "setting": "[4]; [7]", "result": "7.04±1.15", "unit": "µOsm/min"}, {"measurement": "Plasma osmolality", "setting": "[4]; young SHR (SHR-6), day 0 (baseline), CH n=8-10, RIY n=5, VWIS n=5-6", "result": "303±3", "unit": "mOsm/l"}, {"measurement": "Plasma K+ concentration", "setting": "[4]; [8]", "result": "4.34 ± 0.16", "unit": "mmol/L"}, {"measurement": "Plasma Na+ concentration", "setting": "[4]; [8]", "result": "125.8 ± 2.1", "unit": "mmol/L"}, {"measurement": "Potassium excretion", "setting": "[4]; [8]", "result": "0.48 ± 0.08", "unit": "µmol/min"}, {"measurement": "Sodium excretion", "setting": "[4]; [8]", "result": "0.51 ± 0.09", "unit": "µmol/min"}, {"measurement": "Total solute excretion", "setting": "[4]; [8]", "result": "2.94±0.68", "unit": "µOsm/min"}, {"measurement": "Plasma osmolality", "setting": "[4]; young SHR (SHR-6), day 7 of daily iv CH 2, RIY 7.5, VWIS 12.5 mg/kg/day", "result": "297±3", "unit": "mOsm/l"}, {"measurement": "Plasma K+ concentration", "setting": "[4]; [9]", "result": "4.61 ± 0.12", "unit": "mmol/L"}, {"measurement": "Plasma Na+ concentration", "setting": "[4]; [9]", "result": "126.0 ± 2.3", "unit": "mmol/L"}, {"measurement": "Potassium excretion", "setting": "[4]; [9]", "result": "0.95 ± 0.12", "unit": "µmol/min"}, {"measurement": "Sodium excretion", "setting": "[4]; [9]", "result": "0.90 ± 0.12", "unit": "µmol/min"}, {"measurement": "Total solute excretion", "setting": "[4]; [9]", "result": "6.05±1.16", "unit": "µOsm/min"}, {"measurement": "Plasma osmolality", "setting": "[4]; young SHR (SHR-6), day 14 of daily iv CH 2, RIY 7.5, VWIS 12.5 mg/kg/day", "result": "295±6", "unit": "mOsm/l"}, {"measurement": "Plasma K+ concentration", "setting": "[4]; [10]", "result": "3.98 ± 0.13", "unit": "mmol/L"}, {"measurement": "Plasma Na+ concentration", "setting": "[4]; [10]", "result": "126.0 ± 1.6", "unit": "mmol/L"}, {"measurement": "Potassium excretion", "setting": "[4]; [10]", "result": "1.01 ± 0.60", "unit": "µmol/min"}, {"measurement": "Sodium excretion", "setting": "[4]; [10]", "result": "0.93 ± 0.47", "unit": "µmol/min"}, {"measurement": "Total solute excretion", "setting": "[4]; [10]", "result": "7.82±0.47", "unit": "µOsm/min"}]}]}
